Test results as given in patent US6440903B1, “Substituted 2,4-diamino-1,3,5-triazines as herbicides” (Bayer Aktiengesellschaft, priority 1996, dated 2002).

Key:
Assay type in all cases: in vivo
[1] = test system: Amaranthus; assay: Post-emergence test; details: Amaranthus, 504 h, greenhouse, scored after three weeks, read-out: % damage, Amaranthus
Method: (§1) Post-emergence Test Solvent: 5 parts by weight of acetone Emulsifier: 1 part by weight of alkylaryl polyglycol ether To produce a suitable preparation of active compound, 1 part by weight of active compound is mixed with the stated amount of solvent, the stated amount of emulsifier is added and the concentrate is diluted with water to the desired concentration. Test plants which have a height of 5-15 cm are sprayed with the preparation of active compound such that the particular amounts of active compounds desired are applied per unit area. The concentration of the spray liquor is chosen so that the particular amounts of active compound desired are applied in 1000 l of water/ha. After three weeks, the degree of damage to the plants is scored visually in % damage in comparison to the untreated control. The Figures Denote: 0%=no effect (like untreated control) 100%=total destruction

[2] = test system: Chenopodium; assay: Post-emergence test; details: Chenopodium, 504 h, greenhouse, scored after three weeks, read-out: % damage, Chenopodium
Method: as §1

[3] = test system: Polygonum; assay: Post-emergence test; details: Polygonum, 504 h, greenhouse, scored after three weeks, read-out: % damage, Polygonum
Method: as §1

[4] = test system: Setaria; assay: Post-emergence test; details: Setaria, 504 h, greenhouse, scored after three weeks, read-out: % damage, Setaria
Method: as §1

[5] = test system: Viola; assay: Post-emergence test; details: 504 h, greenhouse, scored after three weeks, read-out: % damage, Viola
Method: as §1

[6] = test system: Wheat; assay: Post-emergence test; details: Triticum aestivum, 504 h, greenhouse, scored after three weeks, read-out: % damage, Wheat
Method: as §1

[7] = test system: weeds; assay: Post-emergence test (summary in text); details: result in words
Method: Solvent: 5 parts by weight of acetone
Emulsifier: 1 part by weight of alkylaryl polyglycol ether
To produce a suitable preparation of active compound, 1 part by weight of active compound is mixed with the stated amount of solvent, the stated amount of emulsifier is added and the concentrate is diluted with water to the desired concentration.
Test plants which have a height of 5-15 cm are sprayed with the preparation of active compound such that the particular amounts of active compounds desired are applied per unit area. The concentration of the spray liquor is chosen so that the particular amounts of active compound desired are applied in 1000 l of water/ha.
After three weeks, the degree of damage to the plants is scored visually in % damage in comparison to the untreated control.
0%=no effect (like untreated control)

Row | SMILES | activity against weeds [7] | further results
1 | CC(Nc1nc(N)nc(C(F)(F)C(F)(F)F)n1)c1ccc(Cl)cc1 (stereo not shown) |  | pest or weed control at 250 g/ha ([1]; 250 g of ai./ha): 100%; pest or weed control at 250 g/ha ([2]; 250 g of ai./ha): 100%; pest or weed control at 250 g/ha ([3]; 250 g of ai./ha): 100%; pest or weed control at 250 g/ha ([4]; 250 g of ai./ha): 100%; pest or weed control at 250 g/ha ([5]; 250 g of ai./ha): 100%; plant injury at 250 g/ha ([6]; 250 g of ai./ha): 10%
2 | CC(=O)Nc1nc(NC(C)c2ccc(Cl)cc2)nc(C(F)(F)F)n1 (stereo not shown) |  | pest or weed control at 500 g/ha ([1]; 500 g of ai./ha): 100%; pest or weed control at 500 g/ha ([2]; 500 g of ai./ha): 100%; pest or weed control at 500 g/ha ([3]; 500 g of ai./ha): 100%; pest or weed control at 500 g/ha ([4]; 500 g of ai./ha): 95%; pest or weed control at 500 g/ha ([5]; 500 g of ai./ha): 100%; plant injury at 500 g/ha ([6]; 500 g of ai./ha): 10%
3 | CC(Nc1nc(N)nc(Cl)n1)c1ccc(Cl)cc1 (stereo not shown) [Example 4] | strong activity | 
4 | CC(Nc1nc(N)nc(Cl)n1)c1ccc(Cl)cc1 (stereo not shown) [Example 5] | strong activity | 
5 | CC(Nc1nc(N)nc(Cl)n1)c1ccc(Cl)cc1 (stereo not shown) [Example 8] | strong activity | 
6 | CC(Nc1nc(N)nc(C(F)(F)F)n1)c1ccc(Cl)cc1 (stereo not shown) [Example 15] | strong activity | 
7 | CC(Nc1nc(N)nc(C(F)(F)F)n1)c1ccc(Cl)cc1 (stereo not shown) [Example 21] | strong activity | 
8 | COc1ccc(C(C)Nc2nc(N)nc(C(F)(F)F)n2)cc1 (stereo not shown) [Example 79] | strong activity | 
9 | CCC(Nc1nc(N)nc(C(F)(F)F)n1)c1ccc(Cl)cc1 (stereo not shown) [Example 86] | strong activity | 
10 | CCC(Nc1nc(N)nc(C(F)(F)F)n1)c1ccc(Cl)cc1 (stereo not shown) [Example 87] | strong activity | 
11 | CCc1nc(N)nc(NC(C)c2ccc(Cl)cc2)n1 (stereo not shown) [Example 91] | strong activity | 
12 | CC(Nc1nc(N)nc(C(Cl)Cl)n1)c1ccc(Cl)cc1 (stereo not shown) [Example 94] | strong activity | 
13 | CC(Cl)c1nc(N)nc(NC(C)c2ccc(Cl)cc2)n1 (stereo not shown) [Example 96] | strong activity | 
14 | CC(Nc1nc(N)nc(C(C)(Cl)Cl)n1)c1ccc(Cl)cc1 (stereo not shown) [Example 97] | strong activity | 
15 | CCc1nc(N)nc(NC(C)c2ccc(Cl)cc2)n1 (stereo not shown) [Example 153] | strong activity | 
16 | CCc1nc(N)nc(NC(C)c2ccc(Cl)cc2)n1 (stereo not shown) [Example 166] | strong activity | 
17 | COCc1nc(N)nc(NC(C)c2ccc(Cl)cc2)n1 (stereo not shown) [Example 170] | strong activity | 
18 | CC(Cl)c1nc(N)nc(NC(C)c2ccc(Cl)cc2)n1 (stereo not shown) [Example 171] | strong activity | 
